In PubChem BioAssay (NCI):
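Cultured in 96-well plates, cells were exposed to test compound for 48 hours across five concentrations. Abbreviation: GI50, concentration required for 50% inhibition of growth. TGI marks complete inhibition of growth.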

Experiments:
Assay in all cases: NCI-60 cell line screen, 48 h
MDA-MB-231 breast = system: MDA-MB-231 breast
NCI/ADR-RES ovarian = system: NCI/ADR-RES ovarian
OVCAR-8 ovarian = system: OVCAR-8 ovarian
UACC-257 melanoma = system: UACC-257 melanoma
TK-10 renal = system: TK-10 renal
HOP-62 NSCLC = system: HOP-62 NSCLC
IGROV1 ovarian = system: IGROV1 ovarian
SR leukemia = system: SR leukemia
SF-295 CNS = system: SF-295 CNS
SK-MEL-2 melanoma = system: SK-MEL-2 melanoma
CAKI-1 renal = system: CAKI-1 renal
A498 renal = system: A498 renal
K-562 leukemia = system: K-562 leukemia
KM12 colon = system: KM12 colon
HCT-15 colon = system: HCT-15 colon
UO-31 renal = system: UO-31 renal
OVCAR-3 ovarian = system: OVCAR-3 ovarian
SK-OV-3 ovarian = system: SK-OV-3 ovarian
SNB-19 CNS = system: SNB-19 CNS
OVCAR-4 ovarian = system: OVCAR-4 ovarian
HOP-92 NSCLC = system: HOP-92 NSCLC
DU-145 prostate = system: DU-145 prostate
NCI-H460 lung = system: NCI-H460 lung
U251 CNS = system: U251 CNS
M14 melanoma = system: M14 melanoma
PC-3 prostate = system: PC-3 prostate
MCF7 breast = system: MCF7 breast
HCC-2998 colon = system: HCC-2998 colon
EKVX NSCLC = system: EKVX NSCLC
OVCAR-5 ovarian = system: OVCAR-5 ovarian
SK-MEL-5 melanoma = system: SK-MEL-5 melanoma
SNB-75 CNS = system: SNB-75 CNS
RPMI-8226 leukemia = system: RPMI-8226 leukemia
SW-620 colon = system: SW-620 colon
UACC-62 melanoma = system: UACC-62 melanoma
MDA-MB-435 = system: MDA-MB-435
SF-268 CNS = system: SF-268 CNS
HS 578T breast = system: HS 578T breast
SF-539 CNS = system: SF-539 CNS
NCI-H522 lung = system: NCI-H522 lung
MALME-3M melanoma = system: MALME-3M melanoma
A549 NSCLC = system: A549 NSCLC
NCI-H226 lung = system: NCI-H226 lung
HT29 colon = system: HT29 colon
BT-549 breast = system: BT-549 breast
SN12C renal = system: SN12C renal
COLO 205 colon = system: COLO 205 colon
CCRF-CEM leukemia = system: CCRF-CEM leukemia
T-47D breast = system: T-47D breast
NCI-H23 lung = system: NCI-H23 lung
HL-60(TB) leukemia = system: HL-60(TB) leukemia
LOX IMVI melanoma = system: LOX IMVI melanoma
MOLT-4 leukemia = system: MOLT-4 leukemia
SK-MEL-28 melanoma = system: SK-MEL-28 melanoma
786-0 renal = system: 786-0 renal
ACHN renal = system: ACHN renal
HCT-116 colon = system: HCT-116 colon
RXF 393 renal = system: RXF 393 renal

## COC(=O)C(=Cc1ccccc1[N+](=O)[O-])C(=O)OC
MDA-MB-231 breast
  GI50: 3.68 µM
  TGI: 13.5 µM
NCI/ADR-RES ovarian
  GI50: 2.31 µM
  TGI: 5.77 µM
OVCAR-8 ovarian
  GI50: 3.53 µM
  TGI: 40.8 µM
UACC-257 melanoma
  GI50: 4.06 µM
  TGI: 17.3 µM
TK-10 renal
  GI50: 5.93 µM
  TGI: 18.1 µM
HOP-62 NSCLC
  GI50: 13.6 µM
  TGI: 27.1 µM
IGROV1 ovarian
  GI50: 3.41 µM
  TGI: 12 µM
SR leukemia
  GI50: 1.04 µM
  TGI: 4.84 µM
SF-295 CNS
  GI50: 4.08 µM
  TGI: 17.3 µM
SK-MEL-2 melanoma
  GI50: 3.61 µM
  TGI: 16.4 µM
CAKI-1 renal
  GI50: 3.61 µM
  TGI: 14.1 µM
A498 renal
  GI50: 2.75 µM
  TGI: 8.23 µM
K-562 leukemia
  GI50: 2.51 µM
  TGI: 9.48 µM
KM12 colon
  GI50: 2.99 µM
  TGI: 10 µM
HCT-15 colon
  GI50: 2.08 µM
  TGI: 10.7 µM
UO-31 renal
  GI50: 2.31 µM
  TGI: 9.8 µM
OVCAR-3 ovarian
  GI50: 2.28 µM
  TGI: 5.67 µM
SK-OV-3 ovarian
  GI50: 10.2 µM
  TGI: 21.8 µM
SNB-19 CNS
  GI50: 5.41 µM
  TGI: 21.6 µM
OVCAR-4 ovarian
  GI50: 3.94 µM
  TGI: 16.1 µM
HOP-92 NSCLC
  GI50: 2.38 µM
  TGI: 7.4 µM
DU-145 prostate
  GI50: 2.29 µM
  TGI: 6.61 µM
NCI-H460 lung
  GI50: 3.41 µM
  TGI: 13.7 µM
U251 CNS
  GI50: 3.23 µM
  TGI: 13.9 µM
M14 melanoma
  GI50: 3.04 µM
  TGI: 14 µM
PC-3 prostate
  GI50: 4.63 µM
  TGI: 21.1 µM
MCF7 breast
  GI50: 2.35 µM
  TGI: 11.2 µM
HCC-2998 colon
  GI50: 2.68 µM
  TGI: 7.36 µM
EKVX NSCLC
  GI50: 4.23 µM
  TGI: 17 µM
OVCAR-5 ovarian
  GI50: 3.13 µM
  TGI: 8.35 µM
SK-MEL-5 melanoma
  GI50: 2.55 µM
  TGI: 9.2 µM
SNB-75 CNS
  GI50: 2.75 µM
  TGI: 15.3 µM
RPMI-8226 leukemia
  GI50: 1.27 µM
  TGI: 3.63 µM
SW-620 colon
  GI50: 3.9 µM
  TGI: 12.7 µM
UACC-62 melanoma
  GI50: 3.79 µM
  TGI: 15.5 µM
MDA-MB-435
  GI50: 2.26 µM
  TGI: 10.2 µM
SF-268 CNS
  GI50: 3.06 µM
  TGI: 12.7 µM
HS 578T breast
  GI50: 2.04 µM
  TGI: 8.09 µM
SF-539 CNS
  GI50: 2.63 µM
  TGI: 7.5 µM
NCI-H522 lung
  GI50: 1.9 µM
  TGI: 6.65 µM
MALME-3M melanoma
  GI50: 4.44 µM
  TGI: 18.1 µM
A549 NSCLC
  GI50: 3.98 µM
  TGI: 21.7 µM
NCI-H226 lung
  GI50: 8.34 µM
  TGI: 24.8 µM
HT29 colon
  GI50: 3.54 µM
  TGI: 14.4 µM
BT-549 breast
  GI50: 7.14 µM
  TGI: 19.8 µM
SN12C renal
  GI50: 3.63 µM
  TGI: 18.1 µM
COLO 205 colon
  GI50: 3.05 µM
  TGI: 11 µM
CCRF-CEM leukemia
  GI50: 1.81 µM
  TGI: 5.16 µM
T-47D breast
  GI50: 2.12 µM
  TGI: 11 µM
NCI-H23 lung
  GI50: 2.62 µM
  TGI: 9.83 µM
HL-60(TB) leukemia
  GI50: 2.78 µM
  TGI: > 100 µM
LOX IMVI melanoma
  GI50: 2.08 µM
  TGI: 5.88 µM
MOLT-4 leukemia
  GI50: 2.31 µM
  TGI: 7.21 µM
SK-MEL-28 melanoma
  GI50: 2.16 µM
  TGI: 6.06 µM
786-0 renal
  GI50: 4.24 µM
  TGI: 14.2 µM
ACHN renal
  GI50: 4.33 µM
  TGI: 15.6 µM
HCT-116 colon
  GI50: 2.69 µM
  TGI: 9.55 µM
RXF 393 renal
  GI50: 1.87 µM
  TGI: 4.3 µM
